The results in this text go back to ChEMBL document CHEMBL4196007, “Design, synthesis and biological evaluation of novel 4-aminoquinazolines as dual target inhibitors of EGFR-PI3Kα” (Eur J Med Chem, 2018).

Common to all, as to type: functional, cell-based
One assay relates to A549. The experiment in a line: Cytotoxicity against human A549 cells after 72 hrs by SRB assay. As to conditions: A549, 72 h.
In a further assay the test system is BT-549. In words: Cytotoxicity against human BT549 cells after 72 hrs by SRB assay. As to conditions: BT-549, 72 h.
The next assay deals with HCT-116. In words: Cytotoxicity against human HCT116 cells after 72 hrs by SRB assay. As to conditions: HCT-116, 72 h. In general terms: Sulforhodamine B stains cellular protein and so reports cell mass.
The test system of the next assay is MCF7. In words: Cytotoxicity against human MCF7 cells after 72 hrs by SRB assay. As to conditions: MCF7, 72 h.
A further assay relates to SK-HEP1. The experiment in a line: Cytotoxicity against human SKHEP1 cells after 72 hrs by SRB assay. As to conditions: SK-HEP1, 72 h.
The test system of the next assay is SNU-638. The experiment in a line: Cytotoxicity against human SNU638 cells after 72 hrs by SRB assay. As to conditions: SNU-638, 72 h.

One may read the pIC50 as −log10 of the IC50, conventionally taken in molar units. The low end stands for a large IC50, the high end for a small IC50.

Molecules are shown by their SMILES. pIC50: −log10 of the molar value.

On to `CCS(=O)(=O)Nc1cc(-c2ccc3ncnc(Nc4ccc(F)cc4F)c3c2)cnc1OC`, for which the pIC50 was 5.33 in the assay on A549; 5.61 in the assay with BT-549; 5.40 with HCT-116; 5.79 in the assay on MCF7; 5.60 with SK-HEP1; 5.69 with SNU-638.

Take `Cn1c(=O)n(-c2ccc(C(C)(C)C#N)cc2)c2c3cc(-c4cnc5ccccc5c4)ccc3ncc21` [DACTOLISIB]: the pIC50 is 6.21 in the assay on A549; 6.13 in the assay on BT-549; 6.08 with HCT-116; 5.88 with MCF7; 5.74 in the assay on SK-HEP1; 5.91 in the assay on SNU-638.

As to `CCS(=O)(=O)Nc1cc(-c2ccc3ncnc(Nc4cccc(F)c4)c3c2)cnc1OC`, the pIC50 is 5.00 in the assay on A549; 5.56 in the assay with BT-549; 5.40 with HCT-116; 5.10 in the assay with MCF7; 5.73 in the assay on SK-HEP1; 5.56 in the assay on SNU-638.

Take `CCS(=O)(=O)Nc1cc(-c2ccc3ncnc(Nc4ccc(F)nc4)c3c2)cnc1OC`: the pIC50 in the assay with A549 is 5.17; with BT-549, 5.32; with HCT-116, 5.12; in the assay with MCF7, 5.27; in the assay with SK-HEP1, 5.28; with SNU-638, 5.19.

For the compound `CCS(=O)(=O)Nc1cc(-c2ccc3ncnc(Nc4ccc(F)cc4)c3c2)cnc1OC`, the pIC50 in the assay on A549 is 5.12; in the assay on BT-549, 5.51; in the assay with HCT-116 it was 5.50; in the assay with MCF7 it was 5.19; in the assay with SK-HEP1 it was 5.83; with SNU-638, 5.62.

Regarding `CCS(=O)(=O)Nc1cc(-c2ccc3ncnc(Nc4ccc(OCc5ccc(F)cc5)c(Cl)c4)c3c2)cnc1OC`, the pIC50 in the assay with A549 is 4.50; with BT-549 it was 4.84; with HCT-116 it was 5.27; in the assay on MCF7, 4.55; in the assay with SK-HEP1, 5.71; in the assay with SNU-638, 5.63.

In the case of `CCCCS(=O)(=O)Nc1cc(-c2ccc3ncnc(Nc4ccc(F)c(Cl)c4)c3c2)cnc1OC`, the pIC50 in the assay with A549 is 4.11; in the assay on BT-549 it was 4.25; in the assay with HCT-116 it was 5.00; with MCF7, 4.18; with SK-HEP1 it was 4.27; in the assay on SNU-638, 5.27.

Turning to `CCS(=O)(=O)Nc1cc(-c2ccc3ncnc(Nc4ccc(OC)cc4)c3c2)cnc1OC`, the pIC50 was 5.45 in the assay on A549; 5.73 in the assay on BT-549; 5.46 with HCT-116; 5.75 with MCF7; 5.79 with SK-HEP1; 5.40 with SNU-638.

In the case of `CCS(=O)(=O)Nc1cc(-c2ccc3ncnc(Nc4ccc(OC)c(Cl)c4)c3c2)cnc1OC`, the pIC50 with A549 was 5.28; in the assay with BT-549, 5.61; with HCT-116 it was 5.25; in the assay on MCF7, 5.48; in the assay with SK-HEP1 it was 5.55; with SNU-638, 5.44.

As to `COC(=O)c1cccc(Nc2ncnc3ccc(-c4cnc(OC)c(NS(=O)(=O)c5ccc(F)cc5F)c4)cc23)c1`, the pIC50 in the assay on A549 is 4.98; in the assay with BT-549, 4.90; in the assay with HCT-116, 5.82; in the assay with MCF7, 4.65; in the assay with SK-HEP1, 5.55; with SNU-638, 6.40.

Take `CCS(=O)(=O)Nc1cc(-c2ccc3ncnc(Nc4ccc(OC)nc4)c3c2)cnc1OC`: the pIC50 in the assay on A549 is 5.25; with BT-549 it was 5.46; with HCT-116 it was 5.16; in the assay with MCF7, 5.42; with SK-HEP1 it was 5.46; in the assay on SNU-638, 5.37.

For `CCS(=O)(=O)Nc1cc(-c2ccc3ncnc(Nc4ccc(OC)c(OC)c4)c3c2)cnc1OC`, the pIC50 in the assay on A549 was 5.24; in the assay with BT-549, 5.59; in the assay on HCT-116, 5.36; in the assay on MCF7, 5.61; in the assay with SK-HEP1, 5.55; in the assay on SNU-638, 5.77.

As to `CCS(=O)(=O)Nc1cc(-c2ccc3ncnc(Nc4ccc(F)c(C(=O)OC)c4)c3c2)cnc1OC`, the pIC50 in the assay on A549 was 5.47; in the assay with BT-549, 5.56; in the assay on HCT-116, 5.63; in the assay on MCF7 it was 5.94; with SK-HEP1, 5.29; in the assay on SNU-638, 5.60.
